Experimental data published in patent US8124655B2, “Use of LR-90 and LR-102 to overcome insulin resistance” (City of Hope, priority 2007, dated 2012).

Key:
[1] = tested on: Zucker diabetic fatty (ZDF) rat; experiment: Renal function: urinary albumin and total protein excretion, kidney weights (Example 1); type: in vivo
Method: (§1) All animal studies were carried out in compliance with policies outlined in The Guide for the Care and Handling of Laboratory Animals (NIH Publication No. 85-23) that have been approved by the City of Hope Animal Care Committee. Male ZDF (fa/fa) and male Zucker lean (+/+; ZL) rats were obtained at the age of 5 weeks from Charles River Laboratories (Wilmington, Mass., USA). Animals were maintained with free access to Purina 5008 rat chow (Purina Mills, St Louis, Mo., USA) and tap water. All animals were individually housed in a controlled room with a 12 h dark-light cycle. At the age of 13 weeks, the animals were divided into the following groups: (1) ZL rats (n=6); (2) ZDF rats without treatment (n=6); and (3) ZDF rats treated with LR-90 at 50 mg/l in their drinking water (ZDF90, n=6). The dose of LR-90 was chosen after previous experiments with type 1 diabetic nephropathy. Food, water intake, body weight and blood glucose levels were monitored periodically. Systolic blood pressure was measured by tail-cuff plethysmography (CODA2 Blood Pressure System; Kent Scientific, Torrington, Conn., USA). Animals were killed at the age of 40 weeks by over-anaesthetisation with isoflurane and cardiac puncture. Blood samples were collected from each animal and transferred accordingly into heparinised vacutainer tubes; they were later centrifuged (1,500×g for 10 min at 4° C.) for plasma isolation. The kidneys were removed immediately, rinsed in PBS and weighed, after which specimens were snap-frozen in liquid nitrogen or fixed in 10% (vol./vol.) neutral buffered formalin for further biochemical and histological analyses. Plasma glucose, lipids and Nε-(carboxymethyl)lysine-AGE Plasma glucose was measured using a glucose analyzer (2300 STAT; YSI, Yellowsprings, Ohio, USA). Total plasma triacylglycerol and cholesterol concentrations were quantified using the Vitros 250 Chemistry System (Johnson & Johnson, Rochester, N.Y., USA). Nε-(Carboxymethyl)lysine (CML)-AGE was liberated from plasma proteins by acid hydrolysis and then measured by ion-pair reversed-phase liquid chromatography/tandem mass spectrometry as described previously.
Renal function was assessed by measuring urinary albumin and total protein excretion. Prior to killing, rats were housed in metabolism cages for 24 h urine collection. Urinary albumin was quantified using the Nephrat kit according to manufacturer's instructions. Total urinary protein was measured using a kit (DC Assay; Bio-Rad Laboratories, Hercules, Calif., USA).

[2] = tested on: Zucker diabetic fatty rats (ZDF, fa/fa); experiment: Pancreatic islet immunohistochemistry and PAMS staining (Example 2); type: in vivo, rat
Text: FIG. 7. Immunohistochemical analysis and quantification of islet cells. ZDF GM fa/fa rats and lean control rats were fed with high fat diet for 30 weeks and received either nothing or LR-90 or LR-102 in their drinking water. Pancreatic sections from various groups of animals were stained with anti-insulin antibody or anti-glucagon antibody. A. Representative images with the overlay of the insulin (green) and glucagon (red staining). […] B. Insulin-positive β-cell-to-glucagon-ratio was also measured from these images.
FIG. 8. Periodic acid methenamine silver (PAMS) staining of pancreatic tissues. Sections from cryopreserved pancreas of each group of animals on the study were stained with PAMS and examined under light microscopy.
LR-90 at 50 mg/L of drinking water was given to a subgroup of ZDF rats after the rats developed spontaneous diabetes at 13 weeks of age. At 40 weeks of age, and before killing the animals, their weight was measured; HbA1c, plasma glucose, insulin, triglycerides, cholesterol, CRP and urinary albumin and creatinine concentrations were measured. After euthanizing all animals, organs such as the kidneys, eyeballs, liver, heart, aortae and pancreas were dissected and subjected to immunohistochemical staining, RT-PCR, Western blotting and microscopy.

[3] = tested on: CML-AGE, AGER; experiment: Plasma and renal AGE and AGER; type: in vivo, rat; details: ZDF rats
Method: as §1, with “Animals were killed at the age of 40 weeks by over-anaesthetisation with isoflurane and cardiac puncture. Blood samples were collected from each animal and transferred accordingly into heparinised vacutainer tubes; they were later centrifuged (1,500×g for 10 min at 4° C.) for plasma isolation. The kidneys were removed immediately, rinsed in PBS and weighed, after which specimens were snap-frozen in liquid nitrogen or fixed in 10% (vol./vol.) neutral buffered formalin for further biochemical and histological analyses.” left out, “previously. […]” for “previously.”
Renal cortical tissues were homogenised in PBS buffer with 1% (vol./vol.) Nonidet P-40, 0.5% (wt/vol.) sodium deoxycholate, 0.1% (wt/vol.) SDS and protease inhibitor mixture (Roche, Indianapolis, Ind., USA). […] Protein concentrations were measured using the Bio-Rad DC Assay kit. […] Immunoreactive proteins were detected by enhanced chemiluminescence (Western Lightning Chemiluminescence Reagent; Perkin-Elmer, Waltham, Mass., USA) using horseradish peroxidase-labelled secondary antibodies. […]

[4] = ZDF rats, LR-90 50 mg/l in drinking water, at 40 weeks of age, mean ± SEM

CC(C)(Oc1ccc(NC(=O)Nc2ccc(Cc3ccc(NC(=O)Nc4ccc(OC(C)(C)C(=O)O)cc4)c(Cl)c3)cc2Cl)cc1)C(=O)O [LR-90, methylene bis[4,4′-(2-chlorophenylureidophenoxyisobutyric acid)]]
Mean Kidney Weights [1, 4]: 4.23 ± 0.27 g
Relative Kidney Weights [1, 4]: 12.23 ± 0.78 g/kg
Total Urinary Protein [1, 4]: 176.4 ± 43.3 mg/24 h
Urinary Albumin [1, 4]: 25.8 ± 4.8 mg/24 h
Urine Volume [1, 4]: 137 ± 24 mL/day
prevention of increase in total urinary protein ([1]; vs untreated ZDF rats, p<0.01): 67%
prevention of increase in urinary albumin ([1]; vs untreated ZDF rats, p<0.05): 42%
PAMS staining of pancreatic islets ([2]; FIG. 8): amelioration
number of undamaged insulin-secreting islet cells in the pancreas ([2]; FIGS. 7 and 8): significantly higher number
Ager mRNA and protein in kidney tissues ([3]; RT-PCR and immunostaining): markedly abrogated
AGE accumulation in kidney tissues ([3]; immunohistochemistry): markedly abrogated
attenuation of circulating plasma CML-AGE concentration ([3]; p<0.01, LC/tandem MS): 22%
